# Measured values reported in PMC7586797, “Phase 1 Study to Evaluate the Effect of the Investigational Anticancer Agent Sapanisertib on the QTc Interval in Patients With Advanced Solid Tumors” (Clinical Pharmacology in Drug Development, 2020).
# “And” between values parts separate entries of the source, which are not always exact repeats. Identical values can stand only once. Like-named read-outs stand apart in the source and are kept apart here.
# How the values were obtained:
# [1] = Plasma pharmacokinetics after single 40 mg oral dose (LC-MS/MS, noncompartmental); type: in vivo, human; settings: 40 mg single oral dose; for AUC(0-inf) / Cmax / Tmax / half-life: human, po, 40 mg
# Procedure: On cycle 1 day 1, triplicate ECGs and plasma samples for PK were collected from patients ≤15 minutes prior to dosing and at 15 minutes; 30 minutes; and 1‐, 1.5‐, 2‐, 2.5‐, 3‐, 4‐, 6‐, 8‐, and 10‐hour time points after receiving a single oral dose of 40‐mg sapanisertib. The Holter recorders and ECG leads were removed from patients after collection of the 10‐hour time point ECG on day 1, following which patients were furloughed from site. Additional collections of ECGs and plasma samples for PK were conducted at 24 (cycle 1 day 2) and 48 hours (cycle 1 day 3) after dosing. After the first week, that is, cycle 1 day 8, patients had the option to continue to receive treatment with sapanisertib at a dose of 30 mg once weekly in continuous 28‐day cycles until disease progression, unacceptable toxicity, withdrawal of consent, or completion of the 12‐month maximum study duration.
# Plasma samples were analyzed for sapanisertib using a validated liquid chromatography with tandem mass spectrometry method with deuterated sapanisertib used as the internal standard. Multiple reactant monitoring was performed using a positive electrospray method for the mass transitions (m/z) of 310.0 to 268.1 for sapanisertib and 317.0 to 269.1 for deuterated sapanisertib. A Shimadzu high‐pressure liquid chromatography system and Sciex API 4000 tandem mass spectrometry system were used with an Agilent Eclipse plus C18, 50 × 4.6 mm, 3.50‐µm column. For extraction, 50 µL of diluent (0.1% formic acid in acetonitrile/water, 50:50, v/v) and 20 µL of internal standard solution (0.5 µg/mL in diluent) were added to 50 µL of ethylenediaminetetraacetic acid plasma followed by vortex mixing. Plasma proteins were precipitated by adding 500 µL of 0.2% formic acid in acetonitrile followed by vortex mixing for 2 minutes and centrifugation for 5 minutes. A 40‐µL aliquot of the supernatant was transferred to a high‐pressure liquid chromatography vial containing 400 µL of reconstitution solution (10 mM ammonium formate and 10 mM citric acid in acetonitrile/water, 20:80, v/v). Injection volume was 10 µL. A gradient mobile phase (from 20% to 98%) was used, composed of mobile phase A: 0.1% formic/4 mM ammonium formate in water and mobile phase B: 0.1% formic acid and 4 mM ammonium formate in acetonitrile/water 98:2, v/v). The sapanisertib retention time was 1.7 minutes. The dynamic range of the assay was 1 to 1000 ng/mL. Assay accuracy expressed as %bias for the quality control samples ranged from –4.0% to –2.7% and assay precision expressed as percentage coefficient of variation (%CV) for quality control samples, ranged from 3.0% to 9.5% in plasma.
# PK parameters were calculated by noncompartmental methods using WinNonLin Professional version 6.1 (Certara, Princeton, New Jersey). The PK analysis population was defined as all patients who received at least 1 dose of sapanisertib and had sufficient concentration‐time data to calculate ≥1 PK parameters. The safety population included all patients who received ≥1 dose of sapanisertib, according to the National Cancer Institute Common Terminology Criteria for Adverse Events, version 4.03.
# [2] = tested on: human ether‐à‐go‐go channel; settings: in vitro; cited from earlier work
# [3] = tested on: patients with advanced solid tumors; settings: in vivo
# From the text: The relationships between concentration of sapanisertib and QTc and RR intervals were quantitatively analyzed in the PK/QTc analysis population using PK and ECG data from all patients. The data were first explored by graphical analysis, including a visual check for evidence of hysteresis. Mixed‐effects models were subsequently developed to describe the direct effect of sapanisertib on change from time‐matched baseline in RR, QTcI, and QTcF.
# Standard diagnostic and goodness‐of‐fit plots were used for model evaluation and adequacy, plausibility, and precision of parameter estimates. A visual predictive check for the final model was generated to evaluate whether the model provided an accurate description of the data. The estimated parameters were reported with the standard error of the estimates as a measure of uncertainty, and nonparametric bootstrap resampling was used to construct 95%CI for the population parameters in each model. All model development was conducted with a qualified installation of the nonlinear mixed‐effects modeling software, version 7.3 (ICON Development Solutions, Hanover, Maryland). All data analyses were conducted using a qualified installation of the statistical software R.
# A linear mixed‐effects model was used to characterize the direct effect of sapanisertib plasma concentration on ΔQTcI. […] The linear mixed‐effects model of sapanisertib plasma concentration versus ΔQTcI was subsequently used to predict the effect of sapanisertib on QTcI at the expected Cmax values for 4‐, 30‐, and 40‐mg sapanisertib doses. […] Model‐based simulations from the fitted model for ΔQTcI versus sapanisertib plasma concentration were used to generate CIs across the range of observed concentrations and to estimate the probability of patient ΔQTcI values exceeding 30‐ and 60‐millisecond thresholds at Cmax values corresponding to the 4‐, 30‐, and 40‐mg doses (Table 4).
# CYP and UGT enzymes = tested on: CYP and UGT enzymes; set-up: method as in Takeda, data on file; settings: in vitro reaction phenotyping; ref Takeda, data on file; cited from earlier work
# [4] = tested on: organic cation transporter 2; set-up: method as in Takeda data on file; settings: in vitro; ref Takeda data on file; cited from earlier work
# monkey = tested on: monkey; set-up: method as in data on file; settings: ref data on file, cited from earlier work
smiles,measurement,setting,value
CC(C)n1nc(-c2ccc3oc(N)nc3c2)c2c(N)ncnc21 [sapanisertib],"CL (apparent clearance), Geometric mean (%CV)",[1]; empty stomach,16.1 L/h and 16.1 (46.3) L/h
same,"CL (apparent clearance), Mean (SD)",[1]; empty stomach,18.3 (8.5) L/h
same,"CL (apparent clearance), Median (range)",[1]; empty stomach,18.0 (3.1–41.8) L/h
same,AUC(0-inf),"[1]; empty stomach, read-out: AUC∞, Geometric mean (%CV)",2480 ng·h/mL
same,AUC(0-inf),"[1]; empty stomach, read-out: AUC∞, Mean (SD)",2990 ng·h/mL
same,AUC(0-inf),"[1]; empty stomach, read-out: AUC∞, Median (range)",2220 ng·h/mL
same,Cmax,"[1]; empty stomach, read-out: Cmax, Geometric mean (%CV)",297 ng/mL
same,Cmax,"[1]; empty stomach, read-out: Cmax, Mean (SD)",337 ng/mL
same,Cmax,"[1]; empty stomach, read-out: Cmax, Median (range)",317 ng/mL
same,Tmax,"[1]; empty stomach, read-out: Tmax, Geometric mean (%CV)",1.73 h
same,Tmax,"[1]; empty stomach, read-out: Tmax, Mean (SD)",2.51 h
same,Tmax,"[1]; empty stomach, read-out: Tmax, Median (range)",1.52 h
same,half-life,"[1]; no unit in table (hours), read-out: T1/2 (terminal disposition half-life), Geometric mean (%CV) (converted)",9.06 h
same,half-life,"[1]; no unit in table (hours), read-out: T1/2 (terminal disposition half-life), Mean (SD) (converted)",9.48 h
same,half-life,"[1]; no unit in table (hours), read-out: T1/2 (terminal disposition half-life), Median (range) (converted)",9.07 h
same,half-life,"[1]; standard deviation 2.9 hours, read-out: Mean plasma half-life (converted)",9.5 h
same,IC50,[2],175 µM
same,Estimated probability that ΔQTcF would exceed 30 milliseconds or 60 milliseconds,[3]; human,< 0.0001
same,Association of ΔQTcF with plasma concentration,[3],weakly negative association
same,Association of ΔQTcI with plasma concentration,[3],weakly negative association
same,Association of ΔRR with plasma concentration,[3],weakly positive association
same,CYP enzymes participating in oxidative metabolism,CYP and UGT enzymes,"CYP1A2, 3A4, and 2C19"
same,IC50,[4],1.9 µM
same,Estimated free Cmax,monkey; 0.5 mg/kg,230 nM
same,Electrocardiographic changes,"monkey; single- or multiple-dose, up to 0.5 mg/kg",no remarkable electrocardiographic changes
